Read-outs that look alike come from different tables or passages of the source.
Tests used:
[1] = tested on: KRAS G12V
[2] = tested on: RAS; test: Active Ras pull down assay (CRAF-RBD, Ral-GDS-RA) after EGF stimulation in HeLa cells; type: cell-based; conditions: pre-treatment at 200 nM, 1 h before EGF stimulation
[3] = tested on: RAS; conditions: cited from earlier work

Row | SMILES | inactivation of KRAS (inhibition of KRAS activation), relative luminescence vs DMSO [1] | other results
1 | COc1ccc([C@@]23Oc4cc(OC)cc(OC)c4[C@]2(O)[C@H](O)C[C@H]3c2cccc(F)c2)cc1 [FL15] | inactivation of KRAS | 
2 | COc1ccc([C@@]23Oc4cc(OC)cc(OC)c4[C@]2(O)[C@H](OC=O)C[C@H]3c2ccccc2)cc1 [FL19] | inactivation of KRAS | 
3 | CNC(=O)[C@H]1[C@@H](O)[C@@]2(O)c3c(OC)cc(OC)cc3O[C@@]2(c2ccc(Br)cc2)[C@@H]1c1ccccc1 [FL13] | inactivation of KRAS | 
4 | COc1ccc([C@@]23Oc4cc(OC)cc(OC)c4[C@]2(O)[C@H](O)[C@H](C(=O)N(C)C)[C@H]3c2ccccc2)cc1 [rocaglamide] |  | activation of RAS in response to EGF (GTP-loaded Ras pull down) [2]: inhibited; RAS-activation in KRAS-mutated cell lines [3]: inhibits RAS-activation; specificity for KRAS versus isoforms HRAS and NRAS [3]: not specific enough to differentiate between KRAS and a closely related isoform HRAS and NRAS; inactivation of KRAS (inhibition of KRAS activation), relative luminescence vs DMSO ([1]; 100 nM compounds for 4 h, KRAS G12V transfected HeLa cells, similar results with KRAS WT + EGF (100 ng/ml, 30 min)): inactivation of KRAS
5 | COc1cc(OC)c2c(c1)O[C@@]1(c3ccc(Cl)cc3)[C@H](c3cccc(F)c3)C[C@H](NC(=O)N(C)C)[C@@]21O [FL42] | inactivation of KRAS | 
6 | COC(=O)[C@H]1[C@@H](O)[C@@]2(O)c3c(OC)cc(OC)cc3O[C@@]2(c2ccc(Br)cc2)[C@@H]1c1ccccc1 [FL10] | inactivation of KRAS | 
7 | COc1cc(OC)c2c(c1)O[C@@]1(c3ccc(Br)cc3)[C@H](c3ccccc3)C[C@@H](O)[C@@]21O [FL3] | inactivation of KRAS | 
8 | COc1cc(OC)c2c(c1)O[C@@]1(c3ccc(Br)cc3)[C@H](c3cccc(F)c3)C[C@H](NC(N)=O)[C@@]21O [FL40] | inactivation of KRAS | 
9 | CNCCOc1ccc2c(c1)O[C@@]1(c3ccc(Cl)cc3)[C@H](c3ccccc3)C[C@@H](O)[C@@]21O [IMD-26260] | inactivation of KRAS | 
10 | COc1cc(OC)c2c(c1)O[C@@]1(c3ccc(Br)cc3)[C@H](c3cccc(F)c3)C[C@H](NC(=O)N(C)C)[C@@]21O [FL37] | inactivation of KRAS | 
